Measured values published in patent publication US20040234517A1, “Compositions and methods for diagnosing and treating asthma or other allergic or inflammatory diseases” (WYETH, priority 2003, published 2004).
Where two headings read alike, the source gives them in different places.

Experiments:
arginase [1] = conditions: intact cells; cited from earlier work
arginase [2] = conditions: read-out: IC50 hydrolysis of L-arginine to L-ornithine; unstimulated murine macrophages (Tenu et al.); cited from earlier work
arginase [3] = test: arginase activity of murine macrophages (hydrolysis of L-arginine to L-ornithine); format: cell-based; conditions: unstimulated murine macrophages
Excerpt: Stimulation of murine macrophages with interferon-gamma and lipopolysaccharide (IFN-gamma+LPS) results in clear expression of an inducible NOS (iNOS) and to an increase in arginase activity.

iNOS = iNOS (Mus musculus, UniProt P29477); conditions: cited from earlier work
arginase [4] = conditions: IFN-gamma+LPS-stimulated macrophage; cited from earlier work
arginase [5] = test: arginase activity in internal anal sphincter
IL-13 [6] = test: OVA-challenge asthma model: mucus production and airway hyperresponsiveness; format: in vivo, mouse; conditions: FIG. 12 legend
Excerpt: It is generally accepted that allergic asthma is initiated by an inappropriate inflammatory reaction to airborne allergens. […] One murine model of asthma involves sensitization of the animal to ovalbumin (OVA) followed by intratracheal delivery of the OVA challenge. […] The cytokine IL-13, expressed by basophils, mast cells, activated T cells and NK cells, plays a central role in the inflammatory response to OVA in mouse lungs. […] Thus, IL-13 mediated signaling is sufficient to elicit all four asthma-related pathophysiological phenotypes and is required for the hypersecretion of mucous and induced AHR in the mouse model.
FIG. 12 is a graphical representation showing that ARG1 mRNA expression increases following direct pulmonary instillation of rIL-13 or intratracheal Ovalbumin allergen challenge. Blockade of IL-13 signaling by administration of sIL13Rα2.Fc inhibits 67% of induced Arg1 mRNA expression. Blockade of IL-13 using the soluble receptor sIL13Rα2.Fc inhibits the allergen induced mucus production and airway hyperresponsiveness (AHR).

IL-13 [7] = test: lung ARG1 mRNA expression after ovalbumin allergen challenge; format: in vivo, Balb/c mice; conditions: mouse lung
Description: Balb/c mice were immunized by an intraperitoneal (i.p.) injection of 10 μg of OVA (Sigma, St. Louis, Mo.) in 200 μl of PBS on day 0. On days 14 and 25 mice were anesthetized with a mixture of ketamine and xylazine (45 and 8 mg/kg, respectively) and challenged intratracheally with 50 μl of a 1.5% solution of OVA or an equivalent volume of PBS. Mice were injected i.p. either with 100 μl of PBS, hIgG (400 μg/ml) or sIL-13α2-Fc (400 μg/ml) on days 24, 25 and 27. Purification of hIgG was carried according to Urban et al., Immunity 8(2): […], 1998. Lungs were collected and snap frozen for RNA isolation on day 28.
To identify changes in mRNA concentration dependent on IL-13 mediated signal transduction, two of the OVA-challenged mice were treated with three intraperitoneal injections of the soluble IL-13 receptor fusion protein, sIL-13Rα2-Fc, prior to and during the course of the allergic challenge. As control for the Fc-moiety of the receptor fusion protein, two of the OVA-challenged mice were similarly treated with intraperitoneal administration of hIgG. […]
Balb/C-treated and untreated mice were sensitized to OVA, treated with PBS, rIL-13 or sIL13Rα2.Fc as described in FIG. 1. Total lung RNA was isolated and analyzed for ARG1 expression as described in Example 2. The mRNA frequency is expressed as parts per million.

IL-13 [8] = conditions: mouse model, background; cited from earlier work

For `NCCC[C@](N)(C(=O)O)C(F)F` [DFMO, α-difluoromethylornithine], the “effect on the flux of L-arginine through arginase” value (arginase [1]) is given as “inhibitive effect”.

In the case of `N=C(NO)NCC[C@H](N)C(=O)O` [nor-NOHA, N(omega)-hydroxy-L-nor-arginine], the IC50 (arginase [2]) is listed as 12 µM, the “potency relative to L-NOHA” value (arginase [3]) is listed as “about 40 fold” and the “substrate or inhibitor for iNOS” value (iNOS) is listed as “neither a substrate nor an inhibitor”. For the same molecule, the IC50 (arginase [4]) was 10 µM.

For `N[C@@H](CCCCB(O)O)C(=O)O` [ABH, 2(S)-amino-6-boronohexanoic acid], the “potency relative to L-NOHA in inhibiting arginase activity” value (arginase [5]) was “approximately 250 times”.

B1: sIL13Rα2.Fc: soluble IL-13 receptor fusion protein, a soluble IL-13 antagonist (protein)
chain: DTEIKVNPPQDFEIVDPGYLGYLYLQWQPPLSLDHFKECTVEYELKYRNIGSETWKTIITKNLHYKDGFDLNKGIEAKIHTLLPWQCTNGSEVQSSWAETTYWISPQGIPETKVQDMDCVYYNWQYLLCSWKPGIGVLLDTNYNLFYWYEGLDHALQCVDYIKADGQNIGCRFPYLEASDYKDFYICVNGSSENKPIRSSYFTFQLQNIVKPLPPVYLTFTRESSCEIKLKWSIPLGPIPARCFDYEIEIREDDTTLVTATVENETYTLKTTNETRQLCFVVRSKVNIYCSDDGIWSEWSDKQCWEGEDLSKKTLLR
modifications: left off: a dimerising Fc or GST
notes: soluble IL-13 receptor fusion protein, a soluble IL-13 antagonist
In the case of B1, the “allergen induced mucus production and airway hyperresponsiveness (AHR)” value (IL-13 [6]) is listed as “inhibits”, the “inhibition of induced Arg1 mRNA expression” value (IL-13 [7]) is listed as 67% and the “OVA-challenge induced goblet cell mucus synthesis and AHR to acetylcholine” value (IL-13 [8]) is listed as “completely blocked”.
